The source of these data is ChEMBL document CHEMBL6103636, “Development of Potent SHP2 Allosteric Inhibitors: Design, Synthesis, and Evaluation with Antitumor Effects” (J Med Chem, 2025).

The subject of one data set is KYSE-520 cell line. Briefly: cells. The following applies: Homo sapiens, KYSE-520, 72 h.
For data set [1], the target named is T1, Tyrosine-protein phosphatase non-receptor type 11 (Homo sapiens, UniProt Q06124).
T1 sequence (Q06124 whole entry): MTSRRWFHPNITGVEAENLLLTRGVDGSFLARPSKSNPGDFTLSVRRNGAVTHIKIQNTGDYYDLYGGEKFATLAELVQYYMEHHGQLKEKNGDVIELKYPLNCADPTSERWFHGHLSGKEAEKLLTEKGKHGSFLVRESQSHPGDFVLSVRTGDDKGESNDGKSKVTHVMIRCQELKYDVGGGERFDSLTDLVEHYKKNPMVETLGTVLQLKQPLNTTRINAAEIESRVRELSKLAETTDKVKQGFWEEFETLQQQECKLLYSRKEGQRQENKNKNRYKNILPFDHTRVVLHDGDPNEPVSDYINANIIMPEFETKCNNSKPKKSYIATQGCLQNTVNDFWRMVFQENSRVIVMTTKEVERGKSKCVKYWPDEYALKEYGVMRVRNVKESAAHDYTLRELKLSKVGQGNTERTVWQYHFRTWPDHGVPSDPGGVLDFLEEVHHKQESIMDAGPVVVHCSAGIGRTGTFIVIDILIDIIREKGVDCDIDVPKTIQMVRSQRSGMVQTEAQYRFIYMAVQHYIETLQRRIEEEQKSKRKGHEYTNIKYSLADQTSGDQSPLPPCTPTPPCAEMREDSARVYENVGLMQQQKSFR
Briefly: Inhibition of H2N-LN(pY)IDLDLV-(dPEG80) LST(pY)-ASINFQK-amide-activated SHP2 (unknown origin) using DiFMUP as substrate incubated for 30 mins by fluorescence based assay.

A short description of data set [2]: Inhibition of ERK phosphorylation in human KYSE520 cells incubated for 2 hrs by fluorescence based assay. Format: cell-based. Conditions: KYSE-520, 2 h.
Data set [3] is described as follows: Toxicity in NU/NU mouse implanted with human KYSE520 cells assessed as abnormalities in spleen at 25 mg/kg, po treated for 20 days by H and E staining based analysis. Conditions: in vivo, 480 h, time 20 day. Format: organism-based.
A short description of data set [4]: Toxicity in NU/NU mouse implanted with human KYSE520 cells assessed as body weight loss at 25 mg/kg, po treated for 20 days. Format: organism-based. Conditions: in vivo, 480 h, time 20 day.
Data set [5] is described as follows: Toxicity in NU/NU mouse implanted with human KYSE520 cells assessed as abnormalities in animal at 25 mg/kg, po treated for 20 days. Format: organism-based. The following applies: in vivo, 480 h, time 20 day.
Data set [6] can be described thus: Toxicity in NU/NU mouse implanted with human KYSE520 cells assessed as abnormalities in heart at 25 mg/kg, po treated for 20 days by H and E staining based analysis. Format: organism-based. The following applies: in vivo, 480 h, time 20 day.
A short description of data set [7]: Toxicity in NU/NU mouse implanted with human KYSE520 cells assessed as abnormalities in kidney at 25 mg/kg, po treated for 20 days by H and E staining based analysis. In kind it is organism-based. The following applies: in vivo, 480 h, time 20 day.
Data set [8] is described as follows: Toxicity in NU/NU mouse implanted with human KYSE520 cells assessed as abnormalities in lung at 25 mg/kg, po treated for 20 days by H and E staining based analysis. Conditions: in vivo, 480 h, time 20 day. In kind it is organism-based.
Data set [9] in a line: Toxicity in NU/NU mouse implanted with human KYSE520 cells assessed as drug tolerance at 25 mg/kg, po treated for 20 days. The following applies: in vivo, 480 h, time 20 day. In kind it is organism-based.
A short description of data set [10]: Toxicity in NU/NU mouse implanted with human KYSE520 cells assessed as abnormalities in liver at 25 mg/kg, po treated for 20 days by H and E staining based analysis. Format: organism-based. The following applies: in vivo, 480 h, time 20 day.

Bounds are passed on as bounds.

Description for KYSE-520 cell line: Antiproliferative activity against human KYSE520 cells measured after 72 hrs by Cell Titer-Glo assay

Turning to `NC1COCC12CCN(c1nc3ccc(Sc4cccc(NC(=O)c5c(O)nc6ccccn6c5=O)c4Cl)nc3s1)CC2` (centres undefined), the IC50 (commonly the midpoint of a concentration-inhibition curve) in the data set with KYSE-520 cell line was determined as 1200 nM; in data set [1], 68.1 nM; in data set [2], 175 nM.

For the compound `NC1COCC12CCN(c1ncc(Sc3ccnc4c3OC[C@@H]3CCCN43)c3nncn13)CC2` (some centres undefined), it took 78.9 nM to reach half-maximal inhibition in data set [1] (IC50).

In the case of `NC1COCC12CCN(c1nc3ccc(Sc4ccnc5c4OC[C@@H]4CCCN54)cc3s1)CC2` (some centres undefined), the IC50 in data set [1] was 837 nM.

On to `C[C@@H]1OCC2(CCN(c3cnc(Sc4ccnc(N)c4Cl)c(N)n3)CC2)[C@@H]1N` [BATOPROTAFIB], for which the Activity result in data set [3], in data set [4], in data set [5], in [6], in data set [7] and in data set [8] was “Non-toxic” each time. The Activity entry in data set [9] and in [10] was “Non-toxic” in each case. Also, the IC50 was determined as 241 nM in the data set on KYSE-520 cell line and 49 nM in [2].

As for `CCC1C(O)=C(C(=O)Nc2cccc(Sc3ccc4nc(N5CCC(C)(N)CC5)sc4n3)c2Cl)C(=O)N1C` (centres undefined), the IC50 was more than 10000 nM in the data set on KYSE-520 cell line, 82.7 nM in data set [1] and more than 10000 nM in data set [2].

`NC1COCC12CCN(c1nc3ccc(Sc4ccnc5c4OC[C@@H]4CCCN54)nc3s1)CC2` (some centres undefined) had an IC50 in data set [1] of 434 nM.

Consider `NC1COCC12CCN(c1nc3ccc(Sc4cccc(NC(=O)C5=C(O)CN(c6ccccc6)C5=O)c4Cl)nc3s1)CC2` (centres undefined), for which the results for the IC50 (in the data set with KYSE-520 cell line; in data set [1]; in data set [2]) were 9250 nM, 70.2 nM and 2150 nM, respectively.

`Nc1nccc(Sc2ccc3nc(N4CC5CC(C4)N5)sc3n2)c1Cl` had an IC50 in data set [1] of 623 nM.

The compound `Nc1cccc(Sc2ccc3nc(N4CCCC(N)CC4)sc3n2)c1Cl` (centres undefined) had an IC50 in data set [1] of 372 nM.
